Reference: patent EP0343367A1, “Mercapto-compounds having mucolytic action and a process for their preparation” (CAMILLO CORVI S.p.A., priority 1988, dated 1989)
Read-outs that look alike come from different tables or passages of the source.

Experiments:
rat = assay: Expectorating activity in the rat (method of K. Kogi et al.); format: in vivo; settings: os, read-out: Expectorating activity in the rat, ED₅₀ os
From the text: (§1) The following table indicates e.g. the bronchial secretion stimulating and mucolytic activity of the compound 10 (R⁴=H, R⁵=OH) as compared to sobrerol.

healthy rabbit = assay: Production of mucus in the healthy rabbit (method of R. Scuri et al.); format: in vivo; settings: Oryctolagus cuniculus, administration route: oral
From the text: as §1

[1] = read-out: Production of mucus in the healthy rabbit: No.of animals/increase, ED₅₀
[2] = read-out: Production of mucus in the healthy rabbit: Production of mucus, ED₅₀

| SMILES | ED50 (rat) [mg/kg] | ED50 (healthy rabbit; [1]) [mg/kg] | ED50 (healthy rabbit; [2]) [mg/kg] |
| --- | --- | --- | --- |
| CC1=CCC(C(C)(C)O)CC1O (stereo not drawn) [Sobrerol] | 40 | 500 | 500 |
| CC(C)(O)C1CC=C(CS)C(O)C1 (stereo not drawn) [Compound 10, 2-hydroxy-4-(1-hydroxy-1-methylethyl)-6-cyclohexene-1-methanethiol] | 100 | 400 | 400 |
